From patent US20230270804A1, “ANTI-HYPERCHOLESTEROLEMIA COMPOSITION AND A METHOD OF MANUFACTURING THE SAME” (NBI BIOSCIENCES PRIVATE LIMITED, priority 2020, published 2023)

Tests used:
[1] = test system: heart, spleen, lungs, kidney, liver, Aorta; assay: Therapeutic study: histopathology (heart, spleen, lungs, kidney, liver, aorta); assay type: in vivo
From the text: FIG. 7 depicts the histopathological images of heart. […] FIG. 8 depicts the histopathological images of spleen. […] FIG. 9 depicts the histopathological images of lungs. […] FIG. 10 depicts the histopathological images of kidney. […] FIG. 11 depicts the histopathological images of liver.
The long-term rise in the electrolyte such as Na and are associated with blood pressure disorders impacting the heart.

[2] = Prophylactic study (90 days): body weight; assay type: in vivo, Wistar strain albino rats; conditions: for Average Body Weight: HFD+normal diet
Method: Wistar strain albino rats of body weight ranging from 190-225 g were selected for the present study. The temperature and humidity were kept at optimum (22+2° C.; 40-70% and animals were exposed to natural chronological day night cycles. The experiments were carried out in conformity with the Institutional Animal Ethics Committee.
The 6 groups were as follows: • 1. Normal Control • 2.

[3] = test system: Creatine phosphokinase (CPK), Lactate dehydrogenase (LDH), SGOT and SGPT; assay: Prophylactic study: CPK, LDH, SGOT, SGPT; assay type: in vivo, Wistar strain albino rats
Method: (§1) 1.5-2 ml blood sample was taken from retino-orbital chamber in vials for biochemical estimations at every 15 days. Investigations performed included detailed Total Cholesterol—TC (mg/dl), Triglyceride—TG (mg/dl), High Density Lipoprotein—HDL-C (mg/dl), Low Density Lipoprotein—LDL-C (mg/dl), Very Low-Density Lipoprotein—VLDL (mg/dl), WBC (10^3/u1), RBC (10^6/u1), Hb (g/dl), PCV (%), Reticulocyte (%), Platelet count 10^5/mm^3, Clotting time (Sec), Neutrophils, Lymphocyte, Monocyte and Eosinophil. The estimations were done with Ecoline kits from Erba Mannheim, ERBA diagnostics Mannheml, Germany using Semi Autoanalyzer RX50 of MicroLabs Instruments and COUNCELL21 of Tulip Diagnostics Pvt. Ltd. Lipid peroxidation (Plasma & Liver), HMG Co-Reductase, Creatine phosphokinase (CPK), Lactate dehydrogenase (LDH), SGOT and SGPT were estimated at the end of both the studies using the kits.

HMG CoA Reductase = biological target: T1, HMG CoA Reductase (Rattus norvegicus, UniProt P51639); assay: Prophylactic study: HMG CoA reductase activity in liver homogenate; assay type: in vivo, Wistar strain albino rats; conditions: HFD+normal diet, after sacrifice
T1 construct: The tissue homogenate was prepared by homogenizing 1 gm of tissue (liver) with 10 ml of saline arsenate solution; from tissue; host or cells: rat liver homogenate
T1 sequence (P51639 1-887): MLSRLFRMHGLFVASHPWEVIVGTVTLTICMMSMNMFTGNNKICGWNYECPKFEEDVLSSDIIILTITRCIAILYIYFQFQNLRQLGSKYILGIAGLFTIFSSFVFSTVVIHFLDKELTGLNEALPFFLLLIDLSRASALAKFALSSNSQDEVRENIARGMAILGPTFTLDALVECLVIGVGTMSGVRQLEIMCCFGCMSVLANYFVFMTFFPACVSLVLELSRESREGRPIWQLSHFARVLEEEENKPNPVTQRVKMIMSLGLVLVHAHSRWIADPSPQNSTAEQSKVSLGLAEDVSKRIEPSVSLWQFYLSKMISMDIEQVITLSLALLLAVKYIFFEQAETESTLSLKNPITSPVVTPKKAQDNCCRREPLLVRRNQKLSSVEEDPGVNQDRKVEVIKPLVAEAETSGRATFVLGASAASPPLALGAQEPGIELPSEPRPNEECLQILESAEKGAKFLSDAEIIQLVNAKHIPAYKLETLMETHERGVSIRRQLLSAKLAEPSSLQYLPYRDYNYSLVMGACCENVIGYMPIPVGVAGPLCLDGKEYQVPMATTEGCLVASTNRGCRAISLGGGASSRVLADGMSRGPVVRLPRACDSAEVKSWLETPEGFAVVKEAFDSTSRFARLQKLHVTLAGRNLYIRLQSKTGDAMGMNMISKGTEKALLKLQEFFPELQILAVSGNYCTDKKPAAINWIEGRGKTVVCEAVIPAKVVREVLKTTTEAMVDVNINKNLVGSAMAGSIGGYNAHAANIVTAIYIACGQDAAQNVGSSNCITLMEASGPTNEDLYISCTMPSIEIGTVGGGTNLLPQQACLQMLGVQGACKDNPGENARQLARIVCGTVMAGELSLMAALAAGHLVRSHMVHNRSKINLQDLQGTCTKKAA
Method: as §1
The tissue homogenate was prepared by homogenizing 1 gm of tissue (liver) with 10 ml of saline arsenate solution. Further equal volumes of the fresh 10% tissue homogenate and diluted perchloric acid were mixed and allowed to stand for 5 minute and centrifuge (2000 rpm, 10 minutes). […] The readings were taken after 10 minutes at 540 nm vs. a similarly treated saline/arsenate blank.

[4] = HFD+normal diet, after sacrifice

For CC(C)c1c(C(=O)Nc2ccccc2)c(-c2ccccc2)c(-c2ccc(F)cc2)n1CC[C@@H](O)C[C@@H](O)CC(=O)O [Statin, Atorvastatin], the histopathology of heart ([1]; HFD) was “cardiac muscle were found stressed”, the aorta plaque reduction ([1]; HFD continued) was “mild” and the aorta plaque reduction ([1]; HFD discontinued) was “moderate reduction in the plaque”. For the same molecule, the “damage to the endothelial lining” value ([1]; aorta histopathology) was “mild damage to the endothelial lining”, the “Average Body Weight” value ([2]; day 0) was 209.83 ± 26.39 gms and the “Average Body Weight” value ([2]; day 15) was 213.16 ± 27.47 gms. For the same molecule, the “Average Body Weight” value ([2]; day 30) was 209.10 ± 20.10 gms, the “Average Body Weight” value ([2]; day 45) was 223.83 ± 28.41 gms and the “Average Body Weight” value ([2]; day 60) was 222.6 ± 17.46 gms. The “Average Body Weight” value ([2]; day 75) was 223.05 ± 8.08 gms, the “Average Body Weight” value ([2]; day 90) was 229.72 ± 6.13 gms and the “maintenance of body weight” value ([2]; prophylactic study, after HFD treatment) was “not able to maintain the body weight”. It also gave a Creatine phosphokinase [3, 4] of 1.33 ± 0.04 U/ml, an LDH [3, 4] of 278.50 ± 5.50 U/ml and an SGOT [3, 4] of 59.03 ± 1.49 U/ml. The SGPT [3, 4] was 55.63 ± 0.51 U/ml, the “Inhibition in SGPT activity” value ([3]; prophylactic study, composition twice a day) was 20% and the “HMG Co Reductase” value (HMG CoA Reductase) was 163.92 ± 4.02 U/mg.
